Reference: ChEMBL document CHEMBL5291721, “A preclinical secondary pharmacology resource illuminates target-adverse drug reaction associations of marketed drugs” (Nat Commun, 2023)

How the values were obtained:
[1] = target: T1, 5-hydroxytryptamine receptor 1A (Homo sapiens, UniProt P08908); format: functional, cell-based
T1 sequence (P08908 whole entry): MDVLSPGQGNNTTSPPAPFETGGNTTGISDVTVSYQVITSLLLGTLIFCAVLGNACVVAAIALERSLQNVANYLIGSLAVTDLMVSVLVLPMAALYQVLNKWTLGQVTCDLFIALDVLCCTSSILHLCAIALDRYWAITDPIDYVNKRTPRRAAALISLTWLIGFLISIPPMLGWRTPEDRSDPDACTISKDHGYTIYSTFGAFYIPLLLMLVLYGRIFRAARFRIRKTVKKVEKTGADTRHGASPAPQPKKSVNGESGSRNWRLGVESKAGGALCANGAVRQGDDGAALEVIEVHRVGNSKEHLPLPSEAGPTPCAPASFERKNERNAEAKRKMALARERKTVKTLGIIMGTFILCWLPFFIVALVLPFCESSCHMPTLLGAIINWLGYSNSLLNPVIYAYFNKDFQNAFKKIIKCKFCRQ

[2] = target: 5-hydroxytryptamine receptor 2A (Homo sapiens, UniProt P28223); format: functional, cell-based
[3] = target: Kappa-type opioid receptor (Homo sapiens, UniProt P41145)
Histamine H1 receptor = Histamine H1 receptor (Homo sapiens, UniProt P35367)
[4] = target: T2, Muscarinic acetylcholine receptor M2 (Homo sapiens, UniProt P08172); format: functional, cell-based
T2 sequence (P08172 whole entry): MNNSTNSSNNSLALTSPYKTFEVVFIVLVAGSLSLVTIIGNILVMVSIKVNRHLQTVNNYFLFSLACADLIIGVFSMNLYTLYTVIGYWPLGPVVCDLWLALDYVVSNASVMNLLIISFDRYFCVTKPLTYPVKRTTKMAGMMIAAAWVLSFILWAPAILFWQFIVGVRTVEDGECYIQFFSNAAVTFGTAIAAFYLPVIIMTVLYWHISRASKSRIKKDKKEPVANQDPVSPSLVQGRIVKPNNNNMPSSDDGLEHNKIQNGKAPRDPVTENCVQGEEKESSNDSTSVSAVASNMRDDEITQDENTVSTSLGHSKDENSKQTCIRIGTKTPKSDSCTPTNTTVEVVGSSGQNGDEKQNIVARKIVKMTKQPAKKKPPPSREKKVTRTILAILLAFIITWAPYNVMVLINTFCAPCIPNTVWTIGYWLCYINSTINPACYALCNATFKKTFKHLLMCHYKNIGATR

[5] = target: T3, Alpha-1A adrenergic receptor (Homo sapiens, UniProt P35348); format: functional, cell-based
T3 sequence (P35348 whole entry): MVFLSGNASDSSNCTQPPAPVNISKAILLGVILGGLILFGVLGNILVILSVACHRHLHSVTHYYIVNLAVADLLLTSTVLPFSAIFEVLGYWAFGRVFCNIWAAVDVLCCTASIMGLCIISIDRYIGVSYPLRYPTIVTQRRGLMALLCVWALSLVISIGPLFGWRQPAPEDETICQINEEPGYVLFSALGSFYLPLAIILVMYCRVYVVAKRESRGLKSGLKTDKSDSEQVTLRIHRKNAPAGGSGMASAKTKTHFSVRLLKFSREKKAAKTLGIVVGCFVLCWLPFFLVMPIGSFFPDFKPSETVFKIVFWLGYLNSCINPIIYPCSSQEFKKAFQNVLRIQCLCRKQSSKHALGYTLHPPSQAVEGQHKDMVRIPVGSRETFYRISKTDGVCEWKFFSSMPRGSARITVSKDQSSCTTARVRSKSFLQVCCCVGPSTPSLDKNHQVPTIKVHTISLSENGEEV

Cannabinoid receptor 1 = Cannabinoid receptor 1 (Homo sapiens, UniProt P21554); format: functional, cell-based
[6] = target: Delta-type opioid receptor (Homo sapiens, UniProt P41143)
[7] = target: Glutamate receptor ionotropic, NMDA 1 (Rattus norvegicus, UniProt P35439)
[8] = target: 5-hydroxytryptamine receptor 2B (Homo sapiens, UniProt P41595); format: functional, cell-based
Endothelin-1 receptor = target: T4, Endothelin-1 receptor (Homo sapiens, UniProt P25101)
T4 sequence (P25101 whole entry): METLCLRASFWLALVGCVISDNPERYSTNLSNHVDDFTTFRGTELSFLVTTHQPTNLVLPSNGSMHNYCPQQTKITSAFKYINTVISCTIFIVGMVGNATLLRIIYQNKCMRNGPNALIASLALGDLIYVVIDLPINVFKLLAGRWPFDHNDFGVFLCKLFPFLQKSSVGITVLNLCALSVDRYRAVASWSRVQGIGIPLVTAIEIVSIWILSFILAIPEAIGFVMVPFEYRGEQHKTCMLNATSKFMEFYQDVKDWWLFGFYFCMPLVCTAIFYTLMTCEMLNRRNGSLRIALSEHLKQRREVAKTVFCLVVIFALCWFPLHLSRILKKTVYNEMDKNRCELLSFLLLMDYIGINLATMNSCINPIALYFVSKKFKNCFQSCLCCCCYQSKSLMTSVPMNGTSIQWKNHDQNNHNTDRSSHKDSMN

[9] = target: Beta-1 adrenergic receptor (Homo sapiens, UniProt P08588); format: functional
[10] = target: T5, Alpha-2B adrenergic receptor (Homo sapiens, UniProt P18089)
T5 sequence (P18089 whole entry): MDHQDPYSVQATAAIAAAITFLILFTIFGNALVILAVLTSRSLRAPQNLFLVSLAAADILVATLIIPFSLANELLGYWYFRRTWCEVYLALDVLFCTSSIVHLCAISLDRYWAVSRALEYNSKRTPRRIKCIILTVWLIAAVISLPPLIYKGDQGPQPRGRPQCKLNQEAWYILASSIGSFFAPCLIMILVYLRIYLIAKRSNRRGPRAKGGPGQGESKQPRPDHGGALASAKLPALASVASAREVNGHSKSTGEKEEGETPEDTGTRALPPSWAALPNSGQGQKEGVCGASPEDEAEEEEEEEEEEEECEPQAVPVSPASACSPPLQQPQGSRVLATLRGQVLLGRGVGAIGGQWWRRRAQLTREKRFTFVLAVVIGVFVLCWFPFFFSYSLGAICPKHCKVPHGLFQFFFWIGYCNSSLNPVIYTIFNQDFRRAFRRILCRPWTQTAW

Histamine H3 receptor = Histamine H3 receptor (Homo sapiens, UniProt Q9Y5N1)
Note: assay procedure not described here.

Chain of Delta-type opioid receptor (P41143 whole entry): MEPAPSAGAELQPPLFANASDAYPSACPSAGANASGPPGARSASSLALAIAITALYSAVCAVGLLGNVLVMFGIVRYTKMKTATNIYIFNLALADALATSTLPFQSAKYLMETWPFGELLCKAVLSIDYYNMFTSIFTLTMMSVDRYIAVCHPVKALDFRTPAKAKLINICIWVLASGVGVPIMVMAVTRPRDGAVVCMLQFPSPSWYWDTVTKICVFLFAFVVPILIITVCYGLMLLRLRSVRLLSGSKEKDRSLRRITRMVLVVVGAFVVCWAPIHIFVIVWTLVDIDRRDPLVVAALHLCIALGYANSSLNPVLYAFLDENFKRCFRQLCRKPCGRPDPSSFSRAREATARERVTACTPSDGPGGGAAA
Chain of Kappa-type opioid receptor (P41145 whole entry): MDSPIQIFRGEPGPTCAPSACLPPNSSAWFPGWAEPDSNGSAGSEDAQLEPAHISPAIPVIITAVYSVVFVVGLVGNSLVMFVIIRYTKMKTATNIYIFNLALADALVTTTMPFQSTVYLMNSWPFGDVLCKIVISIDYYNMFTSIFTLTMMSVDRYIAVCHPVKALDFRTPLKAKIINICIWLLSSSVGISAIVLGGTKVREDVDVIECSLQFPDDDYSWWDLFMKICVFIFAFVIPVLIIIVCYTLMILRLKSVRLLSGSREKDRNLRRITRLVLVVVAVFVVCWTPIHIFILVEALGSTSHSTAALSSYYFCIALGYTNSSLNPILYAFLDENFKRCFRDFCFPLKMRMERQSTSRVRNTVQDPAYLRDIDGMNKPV
Chain of 5-hydroxytryptamine receptor 2B (P41595 whole entry): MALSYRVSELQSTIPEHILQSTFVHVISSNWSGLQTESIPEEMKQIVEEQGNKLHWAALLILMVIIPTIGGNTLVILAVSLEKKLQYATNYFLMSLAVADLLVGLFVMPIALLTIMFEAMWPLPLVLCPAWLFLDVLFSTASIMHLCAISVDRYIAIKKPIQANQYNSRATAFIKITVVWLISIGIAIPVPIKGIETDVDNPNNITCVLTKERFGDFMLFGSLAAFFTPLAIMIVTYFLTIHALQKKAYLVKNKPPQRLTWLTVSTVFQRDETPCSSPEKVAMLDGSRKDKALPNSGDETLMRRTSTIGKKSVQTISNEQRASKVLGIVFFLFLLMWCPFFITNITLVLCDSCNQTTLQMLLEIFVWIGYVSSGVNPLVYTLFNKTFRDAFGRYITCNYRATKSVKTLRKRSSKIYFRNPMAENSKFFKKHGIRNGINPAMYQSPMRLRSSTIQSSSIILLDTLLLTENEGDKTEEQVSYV
Chain of Histamine H3 receptor (Q9Y5N1 whole entry): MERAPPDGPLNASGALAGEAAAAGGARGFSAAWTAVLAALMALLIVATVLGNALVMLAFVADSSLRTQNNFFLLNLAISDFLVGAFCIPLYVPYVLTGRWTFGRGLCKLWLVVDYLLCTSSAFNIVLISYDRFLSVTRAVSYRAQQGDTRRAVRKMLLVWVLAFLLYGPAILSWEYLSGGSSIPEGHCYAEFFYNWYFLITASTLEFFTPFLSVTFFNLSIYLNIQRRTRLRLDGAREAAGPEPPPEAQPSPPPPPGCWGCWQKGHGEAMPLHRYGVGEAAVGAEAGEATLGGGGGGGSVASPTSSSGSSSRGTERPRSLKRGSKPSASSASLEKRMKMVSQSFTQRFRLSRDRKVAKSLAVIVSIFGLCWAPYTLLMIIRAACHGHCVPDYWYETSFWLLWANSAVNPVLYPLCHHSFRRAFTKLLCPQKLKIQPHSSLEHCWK
Chain of Beta-1 adrenergic receptor (P08588 whole entry): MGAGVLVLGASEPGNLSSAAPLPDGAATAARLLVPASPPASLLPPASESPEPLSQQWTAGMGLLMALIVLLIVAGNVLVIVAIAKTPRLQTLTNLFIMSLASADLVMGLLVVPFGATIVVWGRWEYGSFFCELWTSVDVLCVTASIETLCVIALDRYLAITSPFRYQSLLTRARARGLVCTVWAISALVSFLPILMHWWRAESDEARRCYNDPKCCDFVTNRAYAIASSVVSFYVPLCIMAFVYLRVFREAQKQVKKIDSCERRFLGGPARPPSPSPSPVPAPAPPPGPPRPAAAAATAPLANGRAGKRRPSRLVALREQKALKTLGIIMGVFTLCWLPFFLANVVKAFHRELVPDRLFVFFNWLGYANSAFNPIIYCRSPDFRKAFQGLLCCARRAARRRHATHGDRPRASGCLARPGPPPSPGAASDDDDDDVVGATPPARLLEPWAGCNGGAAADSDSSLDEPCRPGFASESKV
Chain of Histamine H1 receptor (P35367 whole entry): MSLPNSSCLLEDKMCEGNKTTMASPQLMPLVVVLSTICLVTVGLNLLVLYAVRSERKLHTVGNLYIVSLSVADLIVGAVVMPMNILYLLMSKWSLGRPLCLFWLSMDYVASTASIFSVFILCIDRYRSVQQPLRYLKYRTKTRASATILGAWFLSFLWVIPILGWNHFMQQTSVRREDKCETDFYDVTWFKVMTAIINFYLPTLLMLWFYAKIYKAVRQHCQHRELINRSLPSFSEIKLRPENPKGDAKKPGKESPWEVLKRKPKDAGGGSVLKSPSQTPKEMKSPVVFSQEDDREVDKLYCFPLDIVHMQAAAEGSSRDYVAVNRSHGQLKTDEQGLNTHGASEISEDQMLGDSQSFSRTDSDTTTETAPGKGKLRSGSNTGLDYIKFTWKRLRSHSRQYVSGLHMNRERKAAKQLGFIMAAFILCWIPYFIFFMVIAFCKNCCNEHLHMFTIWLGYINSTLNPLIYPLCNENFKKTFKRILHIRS
Chain of 5-hydroxytryptamine receptor 2A (P28223 whole entry): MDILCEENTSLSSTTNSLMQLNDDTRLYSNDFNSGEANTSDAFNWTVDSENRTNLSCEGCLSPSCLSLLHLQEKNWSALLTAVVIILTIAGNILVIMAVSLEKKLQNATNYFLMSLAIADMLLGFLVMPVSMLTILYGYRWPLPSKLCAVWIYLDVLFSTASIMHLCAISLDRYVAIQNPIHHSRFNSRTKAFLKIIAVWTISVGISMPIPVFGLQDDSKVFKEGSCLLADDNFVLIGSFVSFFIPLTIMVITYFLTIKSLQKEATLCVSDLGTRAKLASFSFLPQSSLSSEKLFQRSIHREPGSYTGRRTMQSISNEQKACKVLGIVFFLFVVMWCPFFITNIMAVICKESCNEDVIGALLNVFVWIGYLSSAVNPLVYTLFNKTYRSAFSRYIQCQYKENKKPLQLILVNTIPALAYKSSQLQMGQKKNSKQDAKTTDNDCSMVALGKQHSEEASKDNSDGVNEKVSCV
Chain of Cannabinoid receptor 1 (P21554 whole entry): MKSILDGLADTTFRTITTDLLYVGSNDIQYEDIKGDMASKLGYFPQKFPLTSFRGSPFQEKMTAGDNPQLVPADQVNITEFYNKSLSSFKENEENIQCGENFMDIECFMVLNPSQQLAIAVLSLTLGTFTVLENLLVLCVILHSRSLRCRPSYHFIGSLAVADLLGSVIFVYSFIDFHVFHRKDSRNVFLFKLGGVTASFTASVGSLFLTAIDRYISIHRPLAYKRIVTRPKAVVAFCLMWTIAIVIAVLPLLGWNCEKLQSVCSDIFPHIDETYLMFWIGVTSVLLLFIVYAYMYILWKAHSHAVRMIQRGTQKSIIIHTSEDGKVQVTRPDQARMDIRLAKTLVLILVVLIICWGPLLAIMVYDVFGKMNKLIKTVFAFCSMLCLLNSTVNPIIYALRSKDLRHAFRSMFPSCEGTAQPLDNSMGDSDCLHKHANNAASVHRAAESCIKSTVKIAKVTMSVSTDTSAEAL

Compound | AC50 [1] | AC50 [2] | AC50 [3] | AC50 (Histamine H1 receptor) | AC50 [4] | AC50 [5] | AC50 (Cannabinoid receptor 1) | AC50 [6] | AC50 [7] | AC50 [8] | AC50 (Endothelin-1 receptor) | AC50 [9] | AC50 [10] | AC50 (Histamine H3 receptor)
C1=Cc2cccc(OCC3CNCCO3)c2C1 (configuration not stated) [INDELOXAZINE] | > 30 µM | > 30 µM | 25 µM | 17 µM | > 30 µM | > 30 µM | > 30 µM | 22 µM | > 30 µM | > 30 µM | > 30 µM | > 30 µM | > 30 µM | > 30 µM
COc1ccc(C(=O)NCc2ccc(OCCN(C)C)cc2)cc1OC [ITOPRIDE] | > 30 µM | > 30 µM | > 30 µM | > 30 µM | > 30 µM | > 30 µM | > 30 µM | > 30 µM | > 30 µM | > 30 µM | > 30 µM | > 30 µM | > 30 µM | 19 µM
CC/C=C\C/C=C\C/C=C\CCCCCCCC(=O)O [LINOLENIC ACID] | > 30 µM | > 30 µM | > 30 µM | > 30 µM | > 30 µM | > 30 µM | > 30 µM | > 30 µM | > 30 µM | > 30 µM | > 30 µM | > 30 µM | > 30 µM | > 30 µM
O=C(O)Cc1cn(-c2ccccc2)nc1-c1ccc(Cl)cc1 [LONAZOLAC] | > 30 µM | > 30 µM | > 30 µM | > 30 µM | > 30 µM | > 30 µM | > 30 µM | > 30 µM | > 30 µM | > 30 µM | > 30 µM | > 30 µM | > 30 µM | > 30 µM
C#C[C@]1(O)CC[C@H]2[C@@H]3CCC4=CCCC[C@@H]4[C@H]3CC[C@@]21C [LYNESTRENOL] | > 30 µM | > 30 µM | 1.5 µM | > 30 µM | > 30 µM | > 30 µM | > 30 µM | > 30 µM | > 30 µM | > 30 µM | > 30 µM | > 30 µM | > 30 µM | > 30 µM
C[C@H]1C[C@@H]2[C@H]([C@@H](O)C[C@@]3(C)[C@H]2CC[C@]3(O)C(=O)COC(=O)CCC(=O)O)[C@@]2(C)C=CC(=O)C=C12 [METHYLPREDNISOLONE HEMISUCCINATE] | > 30 µM | > 30 µM | > 30 µM | > 30 µM | > 30 µM | > 30 µM | > 30 µM | > 30 µM | > 30 µM | > 30 µM | > 30 µM | > 30 µM | > 30 µM | > 30 µM
Cc1cc(-c2ccccc2)nnc1NCCN1CCOCC1 [MINAPRINE] | > 10 µM | > 30 µM | > 10 µM | > 10 µM | > 10 µM | > 30 µM | > 30 µM | > 30 µM | > 10 µM | > 10 µM | > 30 µM | > 10 µM | > 10 µM | > 10 µM
CCCCC(C)(O)C/C=C/[C@H]1[C@H](O)CC(=O)[C@@H]1CCCCCCC(=O)OC (some centres not stated) [MISOPROSTOL] | > 30 µM | > 30 µM | > 30 µM | > 30 µM | > 30 µM | > 30 µM | > 30 µM | > 30 µM | > 30 µM | > 30 µM | > 30 µM | > 30 µM | > 30 µM | > 30 µM
O=C(OCCN1CCOCC1)c1cccnc1Nc1cccc(C(F)(F)F)c1 [MORNIFLUMATE] | > 30 µM | > 30 µM | 24 µM | > 30 µM | > 30 µM | > 30 µM | > 30 µM | > 30 µM | > 30 µM | > 30 µM | > 30 µM | > 30 µM | > 30 µM | > 30 µM
Cc1c(Cl)cccc1Nc1ccccc1C(=O)O [TOLFENAMIC ACID] | > 30 µM | > 30 µM | > 30 µM | > 30 µM | > 30 µM | > 30 µM | > 30 µM | > 30 µM | > 30 µM | > 30 µM | > 30 µM | > 30 µM | > 30 µM | > 30 µM
COc1ccc(C(=O)N2CCN(c3ccc4c(c3)CCC(=O)N4)CC2)cc1OC [VESNARINONE] | > 30 µM | > 30 µM | > 30 µM | > 30 µM | > 30 µM | > 30 µM | > 30 µM | > 30 µM | > 30 µM | > 30 µM | > 30 µM | > 30 µM | > 30 µM | > 30 µM
Cc1ccc(-c2nc3ccc(C)cn3c2CC(=O)N(C)C)cc1 [ZOLPIDEM] | > 30 µM | > 30 µM | 18 µM | > 30 µM | > 30 µM | > 30 µM | > 30 µM | > 30 µM | > 30 µM | > 30 µM | > 30 µM | > 30 µM | > 30 µM | > 30 µM
CN1CCN(C(=O)OC2c3nccnc3C(=O)N2c2ccc(Cl)cn2)CC1 (configuration not stated) [ZOPICLONE] | > 10 µM | > 30 µM | > 10 µM | > 30 µM | > 10 µM | > 30 µM | > 30 µM | > 10 µM | > 10 µM | > 10 µM | > 30 µM | > 30 µM | > 30 µM | > 30 µM
